Measured values reported in patent publication US8263638B2, “Dosing regimens for ion channel modulating compounds” (priority 2004, dated 2012).

Test system: Human Cardiac Electrophysiology
Test: Electrophysiological effects of two intravenous doses in patients (Example 1)
Format: in vivo
Parameters: AH interval / HV interval / VERP / AERP / QT / QRS / Atrial MAP50: unit not given here
Settings: for Diastolic BP / HEART RATE / Systolic BP: T = 45 min
Description: This example provides the results of a study conducted to determine the electrophysiological effects of two intravenous doses of COMPOUND A. Patients in the study required electrophysiologic studies (with or without radiofrequency ablation) and were from 18 to 75 years of age. Following the study and ablation (if applicable), the atrial MAP catheter was positioned and the following electrophysiological measures were performed: • 1. Intervals reflecting conduction: […] Intervals reflecting repolarization/refractoriness: • a). […] Heart rate, brachial (cuff) blood pressure. Drug Administration: • 1. […] Twenty five minutes after the start of intravenous drug infusion (15 minutes after the end of loading and start of maintenance infusion), all electrophysiological measures were repeated.

`COc1ccc(CCO[C@@H]2CCCC[C@H]2N2CC[C@@H](O)C2)cc1OC.Cl` [COMPOUND A, (1R,2R)-2-[(3R)-hydroxypyrrolidinyl]-1-(3,4-dimethoxyphenethoxy)cyclohexane monohydrochloride] was tested, and the “AERP 400 Ave Δ” value (Dose Level 1) was 3.3 ± 5.4%, the “AERP 400 Ave Δ (Change from Baseline)” value (Dose Level 1) was 5.0 ± 9.0 ms and the “SNRT (A1 400)” value (Dose Level 1) was 1114.4 ± 227.4 ms. For the same compound, the “SNRT (A1 600)” value (Dose Level 1) was 1157.8 ± 238.3 ms, the “Wenckebach Cycle Length” value (Dose Level 1) was 388.1 ± 94.4 ms and the “Diastolic BP” value (Dose Level 1, 2 mg/kg) was 84 ± 12 mm Hg. The “HEART RATE” value (Dose Level 1, 2 mg/kg) was 78 ± 11 bpm, the “Systolic BP” value (Dose Level 1, 2 mg/kg) was 135 ± 15 mm Hg and the AERP (Dose Level 1, 300 msec) was 180.5 ± 15.5. The AERP (Dose Level 1, 400 msec) was 195.0 ± 23.8, the VERP (Dose Level 1, 400 msec) was 226.7 ± 16.4 and the AH interval (Dose Level 1, 400 msec pacing) was 134.2 ± 69.2. For the same compound, the HV interval (Dose Level 1, 400 msec pacing) was 52.5 ± 13.6, the PA interval (Dose Level 1, 400 msec pacing) was 61.8 ± 30.2 and the PR interval (Dose Level 1, 400 msec pacing) was 239.2 ± 76.7. The AERP (Dose Level 1, 600 msec) was 219.5 ± 32.2, the VERP (Dose Level 1, 600 msec) was 247.8 ± 22.0 and the AH interval (Dose Level 1, 600 msec pacing) was 113.8 ± 29.9. For the same compound, the HV interval (Dose Level 1, 600 msec pacing) was 50.1 ± 12.6, the PA interval (Dose Level 1, 600 msec pacing) was 64.0 ± 22.4 and the PR interval (Dose Level 1, 600 msec pacing) was 227.7 ± 45.3. For the same compound, the “Atrial MAP50” value (Dose Level 1, A1 200 msec) was 116.4 ± 15.4, the “Atrial MAP50” value (Dose Level 1, A1 250 msec) was 134.2 ± 18.4 and the “Atrial MAP50” value (Dose Level 1, A1 300 msec) was 139.5 ± 20.4. For the same compound, the “Atrial MAP50” value (Dose Level 1, A1 400 msec) was 152.6 ± 19.7, the QRS (Dose Level 1, A1 400 msec) was 87.0 ± 6.6 and the QT (Dose Level 1, A1 400 msec) was 325.4 ± 9.0. For the same compound, the “Atrial MAP50” value (Dose Level 1, A1 600 msec) was 172.8 ± 31.9, the QRS (Dose Level 1, A1 600 msec) was 89 ± 9 and the QT (Dose Level 1, A1 600 msec) was 363 ± 27. The “QRS Ave Δ” value (Dose Level 1, V1 400) was 7.6 ± 11.5%, the QRS (Dose Level 1, V1 400 msec) was 160.5 ± 23.0 and the QT (Dose Level 1, V1 400 msec) was 381.5 ± 25.2. For the same compound, the QRS (Dose Level 1, V1 600 msec) was 169 ± 24, the QT (Dose Level 1, V1 600 msec) was 433 ± 30 and the “AERP 400 Ave Δ” value (Dose Level 2) was 14.7 ± 11.5 %. For the same compound, the “AERP 400 Ave Δ (Change from Baseline)” value (Dose Level 2) was 24.4 ± 17.8 ms, the “AERP 600 Ave Δ” value (Dose Level 2) was 16.9 ± 9.0 % and the “SNRT (A1 400)” value (Dose Level 2) was 1047.1 ± 212.2 ms. For the same compound, the “SNRT (A1 600)” value (Dose Level 2) was 1033.3 ± 247.8 ms, the “Wenckebach Cycle Length” value (Dose Level 2) was 366.9 ± 53.7 ms and the “Diastolic BP” value (Dose Level 2, 4 mg/kg) was 75 ± 9 mm Hg. For the same compound, the “HEART RATE” value (Dose Level 2, 4 mg/kg) was 91 ± 19 bpm, the “Systolic BP” value (Dose Level 2, 4 mg/kg) was 126 ± 15 mm Hg and the AERP (Dose Level 2, 300 msec) was 192.8 ± 20.2. The AERP (Dose Level 2, 400 msec) was 206.7 ± 25.6, the VERP (Dose Level 2, 400 msec) was 227.5 ± 16.3 and the AH interval (Dose Level 2, 400 msec pacing) was 147.0 ± 67.6. For the same compound, the HV interval (Dose Level 2, 400 msec pacing) was 50.2 ± 8.4, the PA interval (Dose Level 2, 400 msec pacing) was 75.8 ± 24.4 and the PR interval (Dose Level 2, 400 msec pacing) was 261.2 ± 60.4. It also gave an AERP (Dose Level 2, 600 msec) of 227.9 ± 22.5, a VERP (Dose Level 2, 600 msec) of 261.7 ± 16.3 and an AH interval (Dose Level 2, 600 msec pacing) of 101.7 ± 21.5. For the same compound, the HV interval (Dose Level 2, 600 msec pacing) was 50.9 ± 7.0, the PA interval (Dose Level 2, 600 msec pacing) was 69.1 ± 21.5 and the PR interval (Dose Level 2, 600 msec pacing) was 224.6 ± 18.8. The “Atrial MAP50” value (Dose Level 2, A1 200 msec) was 124.0, the “Atrial MAP50” value (Dose Level 2, A1 250 msec) was 130.0 ± 14.5 and the “Atrial MAP50” value (Dose Level 2, A1 300 msec) was 135.6 ± 20.4. For the same compound, the “Atrial MAP50” value (Dose Level 2, A1 400 msec) was 143.7 ± 25.2, the QRS (Dose Level 2, A1 400 msec) was 86.4 ± 9.0 and the QT (Dose Level 2, A1 400 msec) was 336.7 ± 27.8. The “Atrial MAP50” value (Dose Level 2, A1 600 msec) was 165.5 ± 33.3, the QRS (Dose Level 2, A1 600 msec) was 89 ± 8 and the QT (Dose Level 2, A1 600 msec) was 364 ± 20. It also gave a QRS (Dose Level 2, V1 400 msec) of 157.3 ± 22.5, a QT (Dose Level 2, V1 400 msec) of 376.3 ± 32.5 and a QRS (Dose Level 2, V1 600 msec) of 157 ± 15. The QT (Dose Level 2, V1 600 msec) was 412 ± 30, the “effect on ventricular refractoriness, repolarization or conduction” value (at the doses studied) was “no significant effect” and the “conduction effect in the AV node, His Purkinje, and ventricular tissue” value (conclusion of study) was “small but significant conduction slowing effect”. The “effect on atrial refractory periods” value (conclusion of study) was “dose-dependently prolongs”, the “patients with a metallic taste in mouth” value (n=19, both dose levels) was “three” and the “patients with a transient tingling sensation” value (n=19, both dose levels) was “four”. The “patients with numbness in tongue” value (n=19, both dose levels) was “one” and the “patients with transient hypotension” value (n=19, both dose levels) was “one”.
